Test results reported in paper PMC8466755, “GPCR Pharmacological Profiling of Aaptamine from the Philippine Sponge Stylissa sp. Extends Its Therapeutic Potential for Noncommunicable Diseases” (Molecules, 2021).
pEC50, pIC50: −log10 of the molar value. Converted amounts (≈) assume the structure as drawn. “Also recorded” adds a separate entry of the source.

Assays:
[1] = biological target: OPRK1 (Homo sapiens, UniProt P41145); assay: PathHunter β-arrestin assay, positive allosteric modulation (PAM) mode; format: cell-based; details: dose-response, control agonist at EC20
Sequence of OPRK1 (P41145 whole entry): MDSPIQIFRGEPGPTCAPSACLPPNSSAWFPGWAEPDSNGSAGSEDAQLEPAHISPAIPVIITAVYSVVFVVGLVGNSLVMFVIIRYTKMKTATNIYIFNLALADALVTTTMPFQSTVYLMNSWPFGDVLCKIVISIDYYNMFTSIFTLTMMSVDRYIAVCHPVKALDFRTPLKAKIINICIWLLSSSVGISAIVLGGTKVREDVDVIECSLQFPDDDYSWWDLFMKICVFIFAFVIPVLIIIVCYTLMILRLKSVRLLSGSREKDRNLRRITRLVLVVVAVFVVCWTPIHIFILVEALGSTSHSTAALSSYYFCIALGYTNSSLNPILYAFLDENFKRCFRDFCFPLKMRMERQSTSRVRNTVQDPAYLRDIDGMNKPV
Description: (§3) For PAM assays, the cells were preincubated with the sample followed by agonist induction at the EC20 concentration. To the cells, 5 µL of 5X sample was added and incubated for 30 min at 37 °C or room temperature. Following the incubation period, 5 µL of the 6X EC20 agonist prepared in an assay buffer was added to the cells and incubated for 90 or 180 min at 37 °C or room temperature.

[2] = biological target: opioid receptor delta 1 (OPRD1) (Homo sapiens, UniProt P41143); assay: PathHunter β-arrestin assay, agonist mode; format: cell-based; details: 20 µM primary screen
Sequence of opioid receptor delta 1 (OPRD1) (P41143 whole entry, the tested form may be a part): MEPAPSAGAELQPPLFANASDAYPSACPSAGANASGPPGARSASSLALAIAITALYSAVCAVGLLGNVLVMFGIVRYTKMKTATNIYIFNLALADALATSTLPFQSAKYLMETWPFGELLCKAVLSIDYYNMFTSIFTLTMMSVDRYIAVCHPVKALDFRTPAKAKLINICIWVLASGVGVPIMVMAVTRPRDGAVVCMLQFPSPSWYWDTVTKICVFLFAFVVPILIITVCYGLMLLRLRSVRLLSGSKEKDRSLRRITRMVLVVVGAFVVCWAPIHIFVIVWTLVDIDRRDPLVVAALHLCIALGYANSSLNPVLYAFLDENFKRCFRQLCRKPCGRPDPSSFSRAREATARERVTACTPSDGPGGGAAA
Description: (§1) Aaptamine (20 µM) was profiled in gpcrMAX panel biosensor assays (in agonist and antagonist modes) against a panel of 168 GPCRs. The assay was performed by DiscoverX Corporation (Fremont, CA) using PathHunter β -arrestin enzyme fragment complementation (EFC) technology, in a similar way to that described elsewhere. The PathHunter cell lines were taken from freezer stocks according to standard procedures. A total of 20 µL of cells were seeded into white 384-well plates and incubated at 37 °C for the appropriate time prior to testing.
(§2) For agonist determination, aaptamine was incubated with PathHunter cell lines to induce a response. To increase the concentration, intermediate dilution from 20 µM of aaptamine was performed to generate a 5X sample in an assay buffer. Then, 5 µL of 5X sample was added to the plate with PathHunter cells and incubated for 90 or 180 min at 37 °C or room temperature. The percentage activity of aaptamine was calculated following this formula: % activity = 100% × (mean RLU of test sample − mean RLU of vehicle control)/(mean MAX control ligand − mean RLU of vehicle control).

[3] = system: p21; parameters: method as in doi:10.1016/j.tetlet.2007.01.113; details: cited from earlier work
[4] = biological target: T1, CCR1 (Homo sapiens, UniProt P32246); assay: PathHunter β-arrestin assay, agonist mode; format: cell-based
T1 sequence (P32246 1-355): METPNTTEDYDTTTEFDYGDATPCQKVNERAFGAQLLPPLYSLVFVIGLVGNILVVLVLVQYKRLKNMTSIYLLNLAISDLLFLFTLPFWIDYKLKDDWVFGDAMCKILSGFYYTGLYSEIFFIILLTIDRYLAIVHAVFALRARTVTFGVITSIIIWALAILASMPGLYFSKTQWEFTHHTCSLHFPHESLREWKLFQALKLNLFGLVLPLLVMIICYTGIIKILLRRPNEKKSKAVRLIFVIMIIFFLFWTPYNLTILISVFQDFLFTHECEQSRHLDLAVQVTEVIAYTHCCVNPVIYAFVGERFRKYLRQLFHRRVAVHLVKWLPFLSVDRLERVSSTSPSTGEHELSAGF
Description: as §1, §2
Hit validation was performed by subjecting the aaptamine to an agonist, antagonist, and positive allosteric modulation (PAM) secondary screen utilizing thirteen GPCR biosensor assays (Arrestin) against the following targets: ADRA2A, ADRA2C, ADRB2, CCR1, CCR3, CXCR3, CXCR7, DRD2L, DRD2S, DRD4, HTR1E, OPRK1, and SSTR1. The assays were performed at 10-point concentrations using three-fold serial dilutions in duplicate. For all the assay formats, the final assay vehicle concentration was 1%.

[5] = system: α-adrenoreceptor; parameters: method as in PMID 6150989; details: vascular smooth muscle of male albino rabbits, displacement analysis; cited from earlier work
[6] = biological target: SSTR1 (Homo sapiens, UniProt P30872); assay: PathHunter β-arrestin assay, positive allosteric modulation (PAM) mode; format: cell-based; details: dose-response, control agonist at EC20
Sequence of SSTR1 (P30872 whole entry): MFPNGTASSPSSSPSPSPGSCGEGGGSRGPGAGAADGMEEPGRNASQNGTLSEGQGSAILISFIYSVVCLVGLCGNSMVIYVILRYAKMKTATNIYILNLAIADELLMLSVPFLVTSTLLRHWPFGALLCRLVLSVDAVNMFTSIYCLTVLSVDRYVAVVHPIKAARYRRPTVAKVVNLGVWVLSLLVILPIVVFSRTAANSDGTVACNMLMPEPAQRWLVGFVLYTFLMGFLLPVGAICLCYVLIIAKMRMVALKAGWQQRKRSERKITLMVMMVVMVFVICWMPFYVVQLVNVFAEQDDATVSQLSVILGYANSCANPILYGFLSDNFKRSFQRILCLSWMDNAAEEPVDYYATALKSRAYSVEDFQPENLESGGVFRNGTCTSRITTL
Description: as §3

[7] = system: HeLa cells; parameters: method as in PMID 20451377; details: read-out: cytotoxicity against HeLa cells IC50; cited from earlier work
[8] = system: pdr1 Δ pdr3 Δ S. cerevisiae; assay: Yeast growth inhibition assay, double deletion strain; details: up to 50 µM, 24 h, PDR-attenuated strain
Description: The yeast S. cerevisiae (BY4741) cell culture was prepared by inoculating the microorganism in a 250 mL Erlenmeyer flask containing 50 mL YPD + HEPES medium, followed by incubation at 30 °C for 24–48 h. The assay was performed in a 96-well format. Each well except for the blank contained 100 μL of cell suspension with a final cell density of 5 × 10^4 cells/mL. […] The absorbance was read after a 24 h incubation. […] Nystatin was used as the positive control and DMSO served as the negative control. Each treatment was done in triplicate.

[9] = biological target: ADRA2A (Homo sapiens, UniProt P08913); assay: PathHunter β-arrestin assay, antagonist mode; format: cell-based
Sequence of ADRA2A (P08913 whole entry): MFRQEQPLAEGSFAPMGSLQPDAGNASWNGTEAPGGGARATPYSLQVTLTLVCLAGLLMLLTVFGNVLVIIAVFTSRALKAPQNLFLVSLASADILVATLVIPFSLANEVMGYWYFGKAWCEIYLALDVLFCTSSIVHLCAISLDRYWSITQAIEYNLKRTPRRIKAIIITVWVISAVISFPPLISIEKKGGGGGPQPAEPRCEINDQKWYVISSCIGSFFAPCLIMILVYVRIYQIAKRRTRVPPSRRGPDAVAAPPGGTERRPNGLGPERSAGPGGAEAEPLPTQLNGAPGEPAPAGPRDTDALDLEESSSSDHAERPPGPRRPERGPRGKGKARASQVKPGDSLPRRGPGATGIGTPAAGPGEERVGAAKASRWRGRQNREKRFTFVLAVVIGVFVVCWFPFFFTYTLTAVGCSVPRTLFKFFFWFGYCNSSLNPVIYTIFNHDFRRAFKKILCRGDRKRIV
Description: (§4) The assay was performed by DiscoverX Corporation (Fremont, CA) using PathHunter β -arrestin enzyme fragment complementation (EFC) technology, in a similar way to that described elsewhere [35, 36]. The PathHunter cell lines were taken from freezer stocks according to standard procedures. A total of 20 µL of cells were seeded into white 384-well plates and incubated at 37 °C for the appropriate time prior to testing.

[10] = biological target: mu opioid receptor (μ-OR); parameters: method as in PMID 27744679; details: read-out: EC50 agonist, mu opioid receptor; cited from earlier work
[11] = biological target: DRD2S (Homo sapiens, UniProt P14416); assay: PathHunter β-arrestin assay, antagonist mode; format: cell-based
Sequence of DRD2S (P14416 1-414 isoform P14416-2): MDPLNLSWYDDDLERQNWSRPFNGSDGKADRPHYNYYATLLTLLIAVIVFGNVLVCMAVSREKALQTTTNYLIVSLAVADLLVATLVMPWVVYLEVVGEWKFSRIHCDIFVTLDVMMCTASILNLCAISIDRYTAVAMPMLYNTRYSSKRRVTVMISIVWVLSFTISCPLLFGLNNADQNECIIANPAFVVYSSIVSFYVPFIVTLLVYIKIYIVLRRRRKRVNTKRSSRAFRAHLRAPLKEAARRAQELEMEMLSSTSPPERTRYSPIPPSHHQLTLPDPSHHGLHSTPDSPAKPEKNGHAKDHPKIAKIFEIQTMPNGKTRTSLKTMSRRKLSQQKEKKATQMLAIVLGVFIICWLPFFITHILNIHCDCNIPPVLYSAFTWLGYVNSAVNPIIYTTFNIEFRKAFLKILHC
Description: as §1
For antagonist determination, PathHunter cells were preincubated with aaptamine followed by the addition of an agonist. In this assay format, the standard agonist was added at an EC80 concentration. To the plate that contained the cells, 5 µL of the 5X sample was added and incubated for 30 min at 37 °C or room temperature. After the incubation period, 5 µL of the 6X EC80 agonist in an assay buffer was added to the cells and incubated for additional 90 or 180 min at 37 °C or room temperature.
Hit validation was performed by subjecting the aaptamine to an agonist, antagonist, and positive allosteric modulation (PAM) secondary screen utilizing thirteen GPCR biosensor assays (Arrestin) against the following targets: ADRA2A, ADRA2C, ADRB2, CCR1, CCR3, CXCR3, CXCR7, DRD2L, DRD2S, DRD4, HTR1E, OPRK1, and SSTR1. […]

[12] = biological target: DRD2L (Homo sapiens, UniProt P14416); assay: PathHunter β-arrestin assay, antagonist mode; format: cell-based
Sequence of DRD2L (P14416 whole entry): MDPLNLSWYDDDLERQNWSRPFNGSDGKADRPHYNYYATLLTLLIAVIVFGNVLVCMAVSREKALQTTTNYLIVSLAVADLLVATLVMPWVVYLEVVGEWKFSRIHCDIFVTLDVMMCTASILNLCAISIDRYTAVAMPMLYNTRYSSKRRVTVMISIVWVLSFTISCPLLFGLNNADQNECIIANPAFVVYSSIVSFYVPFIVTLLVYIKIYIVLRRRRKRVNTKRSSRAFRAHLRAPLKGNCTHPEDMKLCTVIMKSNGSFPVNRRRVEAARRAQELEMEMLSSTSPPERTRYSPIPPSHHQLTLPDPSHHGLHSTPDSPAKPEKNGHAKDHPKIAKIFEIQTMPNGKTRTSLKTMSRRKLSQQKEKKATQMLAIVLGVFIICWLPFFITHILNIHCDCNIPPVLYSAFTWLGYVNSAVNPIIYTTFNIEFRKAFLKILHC
Description: as §4

[13] = biological target: T2, DRD4 (Homo sapiens, UniProt P21917); assay: PathHunter β-arrestin assay, antagonist mode; format: cell-based
T2 sequence (P21917 1-419): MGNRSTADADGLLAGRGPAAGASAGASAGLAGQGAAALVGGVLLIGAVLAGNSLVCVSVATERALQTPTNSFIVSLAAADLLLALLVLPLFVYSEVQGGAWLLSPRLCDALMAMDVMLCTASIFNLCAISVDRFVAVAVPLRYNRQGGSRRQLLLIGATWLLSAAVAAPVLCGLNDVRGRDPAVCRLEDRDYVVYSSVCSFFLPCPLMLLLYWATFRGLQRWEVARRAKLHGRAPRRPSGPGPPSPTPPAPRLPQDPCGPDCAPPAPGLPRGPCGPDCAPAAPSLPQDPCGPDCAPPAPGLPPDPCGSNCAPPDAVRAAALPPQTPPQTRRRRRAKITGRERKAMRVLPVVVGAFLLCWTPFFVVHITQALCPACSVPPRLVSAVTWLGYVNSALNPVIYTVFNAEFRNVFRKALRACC
Description: as §4

[14] = system: Candida tropicalis; parameters: method as in doi:10.1016/S0040-4020(03)01069-X; details: antifungal; cited from earlier work
[15] = dose-response analysis, read-out: Dose-Response Maximal Response, % Inhibition

In the case of `COc1cc2ccnc3c2c(c1OC)NC=C3` [aaptamine], the “validation of potentiator hit under PAM conditions” value [1] is given as “false positives; also recorded: did not validate”, the “agonistic activity in the β-arrestin assay” value [2] is given as “did not demonstrate significant agonistic activity” and the “concentrations that increased the expression of p21” value [3] is given as 20 to 50 µM. The Emax ([4]; dose-response analysis, read-out: Dose-Response Maximal Response, % Activation) was 50.2%, the pEC50 ([4]; dose-response, agonist mode) was 4.93 and the “effective concentration, α-adrenoreceptor antagonism” value [5] was 30 µM. For the same compound, the “validation of potentiator hit under PAM conditions” value [6] was “false positives; also recorded: did not validate”, the pIC50 [7] was 4.18 and the growth inhibitory activity [8] was “inactive”. For the same compound, the Emax [9, 15] was 63.4%, the pIC50 ([9]; dose-response, antagonist mode) was 4.25 and the pEC50 [10] was 5.00. It also gave an Emax [11, 15] of 74.4%, a pIC50 ([11]; dose-response, antagonist mode) of 4.59 and an Emax [12, 15] of 73.7%. The pIC50 ([12]; dose-response, antagonist mode) was 4.41, the Emax [13, 15] was 94.5% and the pIC50 ([13]; dose-response, antagonist mode) was 5.16. The “selectivity for DRD4 among the dopamine receptors” value ([13]; versus DRD2S and DRD2L, from IC50 values) was 3.7- to 5.6 fold and the MIC [14] was 110 µM (≈ 25.1 µg/mL).
